From ChEMBL document CHEMBL5604062, “ASAP - ZIKV NS2B-NS3 protease fluorescence dose response” (2024)
Several values for one entry are separate records, joined by “and”; a condition that tells them apart may be missing. Identical values can stand only once.

Biological target: Nonstructural protein 3 (Zika virus, UniProt A0A024AXB9)
Test: Functional biochemical assay to identify treatments for viral infectious disease that targets Zika NS2B-NS3 protease. Utilizing a direct enzyme activity measurement method, reading the fluorescence intensity is used to characterize the relative potency of inhibitors as IC50.
Design: species or system PRVABC59

Sequence of Nonstructural protein 3 (A0A024AXB9 whole entry): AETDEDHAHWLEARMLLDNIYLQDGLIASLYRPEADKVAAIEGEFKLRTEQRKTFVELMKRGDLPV

Row | SMILES | IC50
1 | Cc1ccc(NC(=O)c2cc(Cl)ccc2Cl)c(C(=O)Nc2cccc(CN)c2)c1 | 53.9 µM
2 | Cc1ccc2c(c1)CN(C(=O)c1ccc(C3(CN)CC3)cc1)C(C)(C)C2 | > 99.5 µM
3 | O=C(NCC(F)F)[C@H](Nc1ccc2c(c1)CNC2)c1cc(Cl)cc2c1CCC2 | 0.051 µM and 0.034 µM
4 | CCn1c(=O)c(N2C[C@@H]3[C@H](C2)[C@H]3C(=O)OC)nc2ccccc21 | > 99.5 µM
5 | O=C(Nc1cc(Cl)cc(C(=O)Nc2cccc(-c3cn[nH]n3)c2)c1)OCc1ccccc1 | > 99.5 µM
6 | NCc1ccc(C[C@H](NC(=O)OCc2ccccc2)C(=O)Nc2cccc(CN)c2)cc1 | 33.4 µM
7 | CCn1ccnc(N2CC[C@H](c3ccc(OC)nc3)C2)c1=O | > 99.5 µM
8 | NCc1cccc(NC(=O)c2cc(Cl)ccc2-n2cncn2)c1 | 17.7 µM
9 | Cc1c(C(=O)Nc2cc(C(=O)N(C)C)ccn2)cc(C2CC2)n1C | > 99.5 µM
10 | O=C1CN(Cc2c[nH]c3ccccc23)CCN1c1cccnc1 | > 99.5 µM
11 | O=S(=O)(CCOc1ccccc1)c1nccs1 | > 99.5 µM
12 | CC(C)c1nnc(-c2nc3c(C(=O)Nc4ccc5c(c4)CNC5)cc(F)cc3[nH]2)s1 | 0.161 µM and 0.559 µM
13 | Cc1ccc(C(=O)Nc2ccc3c(c2)CNC3)c2[nH]ncc12 | 3.39 µM
14 | O=C(NCC1CCCCC1)[C@H]1CCCN1C(=O)Nc1ccc2c(c1)CNC2 | > 25 µM
15 | O=S(=O)(c1cccs1)N1CCN(CC=Cc2ccccc2)CC1 | > 99.5 µM
16 | O=S(=O)(Nc1cccc(-c2nnn[nH]2)c1)c1cc(Cl)cc(-c2ccccc2)c1 | > 99.5 µM
17 | NCc1cccc(NC(=O)[C@@]23CCC[C@H](C2)N3C(=O)OCc2ccccc2)c1 | > 99.5 µM
18 | O=c1oc2cccnc2n1CC=Cc1ccccc1 | > 99.5 µM
19 | CCn1cc(-c2ccccc2C(=O)OC)nc(N2CC[C@@H](CO)C2)c1=O | > 99.5 µM

Row | SMILES | IC50
20 | Cc1c(C(=O)Nc2cc(-c3cccnc3)ccn2)cc(C2CCC2)n1C | > 25 µM
21 | O=C(NC[C@H]1CCOC1)c1cc(Cl)ccc1NS(=O)(=O)c1ccc(Oc2ccccc2Cl)cc1 | > 99.5 µM
22 | NCc1cc(Cl)cc(-c2ccc3[nH]c(C(=O)O)cc3c2)c1 | > 99.5 µM
23 | O=C(Cn1ccc2cccnc21)N1CC[C@H](c2c[nH]c3ccccc23)C1 | > 99.5 µM
24 | Cc1cc(-c2ccc([C@@H](NC(=O)OCc3ccccc3)C(=O)Nc3cccc(CN)c3)cc2)cs1 | 3.94 µM
25 | NC[C@H]1C[C@@H](CNC(=O)c2cc(Cl)cc(NC(=O)OCc3ccccc3)c2)CCO1 | > 99.5 µM
26 | O=C(Nc1ccc2c(c1)CNC2)c1cc(Cl)cc2[nH]c(C3(n4ccnn4)CC3)nc12 | 0.765 µM
27 | Clc1cc(CNc2ccc3c(c2)CNC3)c2cn[nH]c2c1 | 3.28 µM
28 | COC(=O)[C@]12CC[C@](C(=O)Nc3cccc(CN)c3)(COC1)C2 | > 99.5 µM
29 | NCc1ccc(NC(=O)c2cc(Cl)cc3[nH]ncc23)cc1 | 3.18 µM
30 | C=C1C[C@H](c2cccc(CN)c2)[C@@H](c2cc(Cl)cc(NC(=O)OCc3ccccc3)c2)C1 | > 25 µM
31 | O=C(O)c1cc(Cl)cc(F)c1NS(=O)(=O)c1ccc(Oc2ccccc2Cl)cc1 | 67 µM
32 | Cc1cc(=O)[nH]c(-c2cccc(NC(=O)c3cc(C4CC4)n(C)c3C)c2)n1 | > 25 µM
33 | COc1ccc(S(=O)(=O)n2nc(OC(=O)c3ccccc3)cc2N)cc1 | 1.16 µM
34 | NC[C@@H](NC(=O)c1cc(Cl)cc(NC(=O)OCc2ccccc2)c1)c1ccccc1 | > 99.5 µM
35 | N#C[C@H](Nc1cncc(-c2nn[nH]n2)c1)c1cc(Cl)cc(NC(=O)OCc2ccccc2)c1 | 51.9 µM
36 | C=CC[C@H]1NCc2cc(N[C@H](C(=O)NC(C)C)c3cc(Cl)cc4[nH]ncc34)ccc21 | 0.994 µM
37 | NCc1cccc(NC(=O)[C@H](NC(=O)OCc2ccccc2)c2ccc(OCC3CCC3)cc2)c1 | 28.5 µM
38 | O=Cc1ccc(CC(=O)N2C[C@@H](O)[C@H](N3CCOCC3)C2)cc1 | > 99.5 µM

Row | SMILES | IC50
39 | COc1nc(Cl)c(CSc2nc(C)co2)s1 | > 99.5 µM
40 | NCc1nc2cc(Cl)ccc2n1Cc1ccc(-c2nn[nH]n2)cc1 | > 99.5 µM
41 | CCn1c(=O)c(N2CC[C@H](c3ccccc3)C2)nc2ccccc21 | > 99.5 µM
42 | CCn1ccnc(N2CC[C@H](C3CCOCC3)C2)c1=O | > 99.5 µM
43 | O=C(Nc1ccc2nc[nH]c2c1)c1cc(F)cc2[nH]ncc12 | 3.3 µM
44 | O=C1Cc2c(C(=O)Nc3ccc4c(c3)CNC4)ccnc2N1 | 22.8 µM
45 | NS(=O)(=O)c1cc(Cl)cc(C(=O)Nc2ccc3c(c2)CNC3)c1 | 1.08 µM
46 | O=C(O)c1cc2cc(-c3cccc([C@H]4CCOC4)n3)ccc2[nH]1 | > 99.5 µM
47 | NCc1cccc(NC(=O)c2cc(Cl)cc(NC(=O)OCc3ccccc3)c2)c1 | 4.79 µM
48 | NCc1cccc(NC(=O)[C@H](NC(=O)OCc2ccccc2)C2CCC(c3ccccc3)CC2)c1 (stereo partly drawn) | 7.6 µM and 7.31 µM
49 | O=C(Nc1cc(-c2cccnc2)ccn1)c1cc2n(n1)CCS2(=O)=O | > 25 µM
50 | CCCC[C@H](N)C(=O)N[C@@H](C(=O)NCc1ccc(C(N)=O)cc1)c1ccc(OCc2ccccc2)cc1 | > 99.5 µM
51 | O=C(Nc1ccc2c(c1)CNC2)c1cc(F)cc(-c2ccnn2CC2CC2)c1 | 1.07 µM
52 | NCc1cccc(NC(=O)[C@H](NC(=O)OCc2ccccc2)c2ccc(CO)cc2)c1 | > 99.5 µM
53 | O=C(O)c1cc(Cl)ccc1NS(=O)(=O)c1ccc(NC2CCNCC2)nc1 | > 99.5 µM
54 | COc1cc(NC(=O)OCc2ccccc2)cc(C(=O)Nc2cccc(CN)c2)c1 | 78.8 µM
55 | CSc1cc2c(cc1NC(=O)c1cc(F)cc3[nH]ncc13)CNC2 | 0.047 µM and 0.032 µM
56 | N[C@H]1CC[C@H](c2ccc(NC(=O)c3cc(Cl)cc(NC(=O)OCc4ccccc4)c3)cc2)C1 | 5.01 µM
57 | O=C(Nc1cccc(-c2nnn[nH]2)c1)c1ccc(-c2cccnc2)s1 | > 99.5 µM

Next, values leading:

Row | IC50 | SMILES
58 | > 99.5 µM | NC1(c2cccc(NS(=O)(=O)c3ccc(Oc4ccccc4Cl)cc3)c2)CCOCC1
59 | > 99.5 µM | Cc1nn(C)cc1S(=O)(=O)N[C@@H](C(=O)Nc1cccc(CN)c1)c1ccc(OCc2ccccc2)cc1
60 | 75.7 µM | O=C(O)c1cc(Cl)cc(NS(=O)(=O)c2ccc(-c3ccc(F)cc3)cc2)c1
61 | 16 µM | O=C(Nc1ccc2c(c1)CNC2)c1ccc2sncc2c1
62 | > 99.5 µM | O=C(O)c1cc(Cl)ccc1NS(=O)(=O)c1ccc(OCc2nnnn2C2CCC2)cc1
63 | > 99.5 µM | CCC1CN(C(=O)Cn2ccnc(N3CC[C@@H](CO)C3)c2=O)C1
64 | 55.7 µM | COC(=O)c1cc(NC(=O)OCc2ccccc2)cc(C(=O)Nc2cccc(CN)c2)c1
65 | > 99.5 µM | CS(=O)(=O)c1cccc(CNC(=O)[C@@H](NC(=O)OCc2ccccc2)c2ccc(OCc3ccccc3)cc2)c1
66 | > 25 µM | Cc1c(C(=O)Nc2cccc(C(=O)NC3CC3)c2)cc(C2CC2)n1C
67 | 46.6 µM | O=C(O)c1cc(Cl)ccc1S(=O)(=O)NC1CCN(c2nc(C3CC3)cc(C(F)(F)F)n2)CC1
68 | 0.848 µM | O=C(Nc1ccc2c(c1)CNC2)c1cc(Br)cc2c1OCO2
69 | > 25 µM | CC(C)(C)OC(=O)N1Cc2ccc(NC(=O)c3ccc4c(Br)csc4c3)cc2C1
70 | > 99.5 µM | CCn1ccnc(N2C[C@H](c3c[nH]c4ccccc34)[C@H](N3C(=O)c4ccccc4C3=O)C2)c1=O
71 | > 99.5 µM | O=C(NCc1cnn(CCO)c1)c1cccc2c1NC(=O)[C@]1(CCCN1)C2
72 | 36.9 µM | NCc1cccc(NC(=O)c2nn(-c3ccc(Cl)c(F)c3)c3c2CCC3)c1
73 | 57.8 µM | O=C(Nc1cc(Cl)cc(C(=O)Nc2cccc([C@H]3CCCCN3)c2)c1)OCc1ccccc1
74 | 0.152 µM | Cc1ncc(-c2cc(F)cc(C(=O)Nc3ccc4c(c3)CNC4)c2)o1
75 | 55.5 µM | NCc1cccc(NC(=O)c2cc(Cl)ccc2OCC(F)(F)F)c1
76 | 71.9 µM | Cc1ccc(S(=O)(=O)N2CCC([C@@H](NC(=O)OCc3ccccc3)C(=O)Nc3cccc(CN)c3)CC2)c(C)c1
77 | 4.8 µM | CNCc1cccc(NC(=O)c2cc(Cl)cc3[nH]ncc23)c1
78 | > 99.5 µM | Cc1nnc(S(=O)(=O)N2CCC([C@H](NC(=O)OCc3ccccc3)C(=O)Nc3cccc(CN)c3)CC2)s1
79 | 32.9 µM | O=C(O)c1cc2cc(-c3cc(Cl)cc(C4CC4)c3)ccc2[nH]1
80 | > 99.5 µM | CCn1ccnc(N2CC[C@H](c3ccc(F)cc3)C2)c1=O

Row | IC50 | SMILES
81 | > 99.5 µM | Cc1cnc(Oc2ccc(S(=O)(=O)Nc3ccc(Cl)cc3C(=O)O)cc2)cn1
82 | > 99.5 µM | COC(=O)c1cc(Cl)ccc1NS(=O)(=O)c1ccc(Cl)nc1
83 | 62.3 µM | NCc1cccc(N[C@H](CCCO)c2cc(Cl)cc(NC(=O)OCc3ccccc3)c2)c1
84 | > 25 µM | COc1ccc2[nH]cnc2c1S(=O)(=O)Nc1ccc2c(c1)CNC2
85 | > 25 µM | CNC(=O)[C@H](Nc1ccc2c(c1)C(=O)OC2)c1cc(Cl)cc2[nH]ncc12
86 | > 99.5 µM | O=c1c2ccccc2nnn1CSc1nnc(-c2ccccc2)o1
87 | > 25 µM | CO[C@]1(C(=O)Nc2ccc3c(c2)C(=O)OC3)CCCNC1
88 | > 99.5 µM | CNC(=O)[C@]1(Nc2ccc3c(c2)CNC3)C(=O)Nc2ccccc21
89 | > 99.5 µM | CC(C)(C)OC(=O)NCc1cccc(NC(=O)C[C@H](N)c2ccc(OCc3ccccc3)c(Br)c2)c1
90 | > 99.5 µM | CCn1cc(-c2ccc3ocnc3c2)nc(N2CC[C@@H](CO)C2)c1=O
91 | 24.9 µM | Clc1ccc2c(CN3CCC(c4c[nH]c5ncccc45)CC3)c[nH]c2c1
92 | > 99.5 µM | CC(C)N1CCC([C@H](NC(=O)OCc2ccccc2)C(=O)Nc2cccc(CN)c2)CC1
93 | 30.6 µM | NCc1ccc(C#CCO)c(NC(=O)c2cc(Cl)cc(NC(=O)OCc3ccccc3)c2)c1
94 | > 99.5 µM | CC1(C)OB(c2ccc(Cl)cc2CNC2CCCCC2)OC1(C)C
95 | 1.89 µM | O=C(Nc1ccc2c(c1)CN[C@H]2c1ccccc1)c1cc(F)cc2[nH]ncc12
96 | 36 nM (2×) and 22 nM | O=C(Nc1ccc2c(c1)CNC2)c1cc(F)cc2[nH]c(-c3cccc(F)c3)nc12
97 | > 99.5 µM | Cc1ccc(S(=O)(=O)CCCn2ccc3sccc3c2=O)cc1
98 | 66.1 µM | O=C(Nc1cc(Cl)cc(C(=O)Nc2ccnc(OC3CNC3)c2)c1)OCc1ccccc1
99 | 0.077 µM and 0.044 µM | O=C(NCC(F)F)[C@H](Nc1ccc2c(c1)CNC2)c1cc(Br)cc2[nH]ccc12
100 | > 99.5 µM | Cc1ccc(F)c2c1CCN(Cc1ccn(C3CNC3)c1)C2
101 | > 99.5 µM | Cc1csc(N2CCN(Cc3c[nH]c4ccccc34)CC2)n1
102 | 0.21 µM | O=C(Nc1ccc2c(c1)CNC2)c1cc(Cl)cc2[nH]c(COc3ccccn3)nc12
103 | > 25 µM | O=C(Nc1cc(-c2cccnc2)ccn1)c1csc(C[C@H]2CCCNC2)n1
